From the kinase profiling compilation of Christmann-Franck et al. (2016)

How the values were obtained:
Test in all cases: KINOMEscan competition binding
[1] = biological target: ABL1 (human), P00519 [F317I]
[2] = biological target: ABL1 (human), P00519 [M351T]
[3] = biological target: ABL1 (human), P00519 [T315I]
AKT2 (human) = AKT2 (human) (UniProt P31751)
ANKK1 (human) = ANKK1 (human) (UniProt Q8NFD2)
[4] = biological target: BRAF (human), P15056 [V600E]
BTK (human) = BTK (human) (UniProt Q06187)
CAMK1D (human) = CAMK1D (human) (UniProt Q8IU85)
CAMK1D (human), sequence (Q8IU85 whole entry, looked up): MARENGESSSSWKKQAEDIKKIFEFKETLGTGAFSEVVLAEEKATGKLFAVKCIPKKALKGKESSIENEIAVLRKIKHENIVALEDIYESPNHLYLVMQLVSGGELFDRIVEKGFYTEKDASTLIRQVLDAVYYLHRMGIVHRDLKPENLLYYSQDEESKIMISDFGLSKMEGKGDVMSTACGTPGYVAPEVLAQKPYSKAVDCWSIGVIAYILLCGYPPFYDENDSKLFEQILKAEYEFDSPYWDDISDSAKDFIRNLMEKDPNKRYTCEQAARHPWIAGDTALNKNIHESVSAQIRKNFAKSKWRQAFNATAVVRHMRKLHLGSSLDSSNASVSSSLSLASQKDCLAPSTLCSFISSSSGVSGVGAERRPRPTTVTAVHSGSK

CDC2L2 (human) = CDC2L2 (human) (UniProt Q9UQ88)
CDK15 (human) = CDK15 (human) (UniProt Q96Q40)
CDK17 (human) = CDK17 (human) (UniProt Q00537)
CDK5 (human) = CDK5 (human) (UniProt Q00535)
CIT (human) = CIT (human) (UniProt O14578)
CLK1 (human) = CLK1 (human) (UniProt P49759)
CLK2 (human) = CLK2 (human) (UniProt P49760)
CLK4 (human) = CLK4 (human) (UniProt Q9HAZ1)
DDR1 (human) = DDR1 (human) (UniProt Q08345)
[5] = biological target: EIF2AK4 KD2 (human), Q9P2K8 [S808G]
EPHA5 (human) = EPHA5 (human) (UniProt P54756)
EPHB3 (human) = EPHB3 (human) (UniProt P54753)
ERBB4 (human) = ERBB4 (human) (UniProt Q15303)
ERN1 (human) = ERN1 (human) (UniProt O75460)
[6] = biological target: FLT3 (human), P36888 [D835H]
HCK (human) = HCK (human) (UniProt P08631)
HIPK1 (human) = HIPK1 (human) (UniProt Q86Z02)
[7] = biological target: JAK1 JH1 catalytic (human) (UniProt P23458)
LIMK2 (human) = LIMK2 (human) (UniProt P53671)
LTK (human) = LTK (human) (UniProt P29376)
MAP3K10 (human) = MAP3K10 (human) (UniProt Q02779)
MAP4K1 (human) = MAP4K1 (human) (UniProt Q92918)
MET (human) = MET (human) (UniProt P08581)
MST1R (human) = MST1R (human) (UniProt Q04912)
MST1R (human), sequence (Q04912 whole entry, looked up): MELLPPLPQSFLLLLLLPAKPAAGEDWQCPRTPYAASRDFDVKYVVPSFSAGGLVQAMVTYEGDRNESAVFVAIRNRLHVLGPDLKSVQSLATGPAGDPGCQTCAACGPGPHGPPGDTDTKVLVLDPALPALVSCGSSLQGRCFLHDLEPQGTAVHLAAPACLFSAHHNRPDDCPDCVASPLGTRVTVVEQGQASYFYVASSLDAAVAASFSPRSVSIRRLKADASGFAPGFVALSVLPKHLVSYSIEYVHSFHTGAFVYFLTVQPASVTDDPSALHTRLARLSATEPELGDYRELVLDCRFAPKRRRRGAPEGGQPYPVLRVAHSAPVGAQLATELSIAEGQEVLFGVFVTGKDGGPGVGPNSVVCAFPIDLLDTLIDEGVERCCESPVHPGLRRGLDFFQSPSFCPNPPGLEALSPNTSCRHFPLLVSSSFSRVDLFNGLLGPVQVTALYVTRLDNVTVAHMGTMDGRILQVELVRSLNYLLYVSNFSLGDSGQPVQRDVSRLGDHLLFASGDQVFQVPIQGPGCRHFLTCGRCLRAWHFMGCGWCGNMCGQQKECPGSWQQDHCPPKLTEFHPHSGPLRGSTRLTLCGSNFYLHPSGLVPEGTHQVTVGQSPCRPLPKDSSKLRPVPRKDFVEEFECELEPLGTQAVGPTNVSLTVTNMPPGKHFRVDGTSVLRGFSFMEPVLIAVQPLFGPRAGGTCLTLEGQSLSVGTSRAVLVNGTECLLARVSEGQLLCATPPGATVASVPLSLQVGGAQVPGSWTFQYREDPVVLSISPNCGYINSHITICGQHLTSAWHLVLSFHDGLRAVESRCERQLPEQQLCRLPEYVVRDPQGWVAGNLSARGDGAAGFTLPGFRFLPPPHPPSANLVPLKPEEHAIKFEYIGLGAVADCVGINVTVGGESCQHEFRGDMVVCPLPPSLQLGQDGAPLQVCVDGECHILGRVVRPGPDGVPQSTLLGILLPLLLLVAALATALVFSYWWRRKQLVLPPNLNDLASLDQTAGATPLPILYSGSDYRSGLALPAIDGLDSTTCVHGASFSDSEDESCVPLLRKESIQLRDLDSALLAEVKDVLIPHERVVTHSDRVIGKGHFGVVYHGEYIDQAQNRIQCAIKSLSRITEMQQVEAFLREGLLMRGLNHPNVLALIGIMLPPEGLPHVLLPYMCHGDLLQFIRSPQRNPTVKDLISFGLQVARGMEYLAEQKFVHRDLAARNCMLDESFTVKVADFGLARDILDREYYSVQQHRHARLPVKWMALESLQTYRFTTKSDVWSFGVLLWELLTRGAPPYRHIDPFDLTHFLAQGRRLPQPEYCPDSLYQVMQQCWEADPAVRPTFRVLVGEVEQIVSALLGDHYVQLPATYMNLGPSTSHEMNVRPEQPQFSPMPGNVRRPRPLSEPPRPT

MYLK2 (human) = MYLK2 (human) (UniProt Q9H1R3)
MYO3B (human) = MYO3B (human) (UniProt Q8WXR4)
[8] = biological target: PIK3CA (human), P42336 [C420R]
PIK3CA (human), P42336 [C420R], sequence (P42336 whole entry C420R, looked up): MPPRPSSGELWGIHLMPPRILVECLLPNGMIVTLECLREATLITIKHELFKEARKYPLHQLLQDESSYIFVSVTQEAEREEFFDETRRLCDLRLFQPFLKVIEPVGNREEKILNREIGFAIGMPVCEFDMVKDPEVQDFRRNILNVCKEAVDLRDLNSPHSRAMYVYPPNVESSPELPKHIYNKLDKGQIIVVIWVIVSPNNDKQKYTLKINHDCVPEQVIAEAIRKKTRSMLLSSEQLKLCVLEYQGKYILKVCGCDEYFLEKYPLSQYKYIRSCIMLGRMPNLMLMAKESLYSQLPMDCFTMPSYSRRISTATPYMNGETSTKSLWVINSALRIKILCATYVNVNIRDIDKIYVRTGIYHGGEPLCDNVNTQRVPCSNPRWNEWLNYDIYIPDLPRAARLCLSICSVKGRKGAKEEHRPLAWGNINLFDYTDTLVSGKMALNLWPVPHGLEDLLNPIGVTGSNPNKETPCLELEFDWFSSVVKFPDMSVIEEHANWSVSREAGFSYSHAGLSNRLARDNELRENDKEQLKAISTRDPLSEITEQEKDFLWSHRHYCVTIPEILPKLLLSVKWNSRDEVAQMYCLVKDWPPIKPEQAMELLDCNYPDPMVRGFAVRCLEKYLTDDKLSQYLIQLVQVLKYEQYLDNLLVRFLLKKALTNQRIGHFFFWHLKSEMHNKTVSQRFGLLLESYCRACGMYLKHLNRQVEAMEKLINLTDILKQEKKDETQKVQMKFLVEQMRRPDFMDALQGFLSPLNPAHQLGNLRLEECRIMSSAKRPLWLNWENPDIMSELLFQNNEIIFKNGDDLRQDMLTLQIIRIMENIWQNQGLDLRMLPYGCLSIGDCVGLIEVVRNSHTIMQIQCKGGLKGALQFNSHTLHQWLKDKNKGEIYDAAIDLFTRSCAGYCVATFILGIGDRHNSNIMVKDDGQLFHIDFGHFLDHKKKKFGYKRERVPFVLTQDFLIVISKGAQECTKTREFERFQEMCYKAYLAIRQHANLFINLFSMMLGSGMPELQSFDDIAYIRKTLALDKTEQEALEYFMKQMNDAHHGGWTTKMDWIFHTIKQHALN

PIM2 (human) = PIM2 (human) (UniProt Q9P1W9)
PRKD3 (human) = PRKD3 (human) (UniProt O94806)
RPS6KA4 KD1 (human) = RPS6KA4 KD1 (human) (UniProt O75676)
RPS6KA4 KD1 (human), sequence (O75676 whole entry, looked up): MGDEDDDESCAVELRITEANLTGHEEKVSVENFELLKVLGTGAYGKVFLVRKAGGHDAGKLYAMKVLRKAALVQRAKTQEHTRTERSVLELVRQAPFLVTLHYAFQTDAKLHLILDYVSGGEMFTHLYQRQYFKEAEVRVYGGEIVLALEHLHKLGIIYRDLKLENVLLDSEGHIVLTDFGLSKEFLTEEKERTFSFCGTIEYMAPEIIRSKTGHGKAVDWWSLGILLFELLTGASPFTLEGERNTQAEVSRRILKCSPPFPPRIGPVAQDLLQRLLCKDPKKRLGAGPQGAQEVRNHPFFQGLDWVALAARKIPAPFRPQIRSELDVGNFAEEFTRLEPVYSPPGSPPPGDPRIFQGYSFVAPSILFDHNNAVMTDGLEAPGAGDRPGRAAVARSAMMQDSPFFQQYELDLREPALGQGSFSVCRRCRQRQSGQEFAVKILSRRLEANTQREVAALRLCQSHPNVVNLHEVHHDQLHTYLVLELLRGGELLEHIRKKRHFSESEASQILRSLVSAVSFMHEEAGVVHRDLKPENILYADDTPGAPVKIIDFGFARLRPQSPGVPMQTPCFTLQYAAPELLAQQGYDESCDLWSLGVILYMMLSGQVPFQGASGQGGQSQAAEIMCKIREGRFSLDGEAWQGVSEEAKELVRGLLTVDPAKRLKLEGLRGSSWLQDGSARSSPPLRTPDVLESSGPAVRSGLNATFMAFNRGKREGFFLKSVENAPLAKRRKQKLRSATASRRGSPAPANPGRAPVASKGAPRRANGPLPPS

RPS6KA4 KD2 (human) = RPS6KA4 KD2 (human) (UniProt O75676)
RPS6KA4 KD2 (human), sequence (O75676 whole entry, looked up): as above

TAOK1 (human) = TAOK1 (human) (UniProt Q7L7X3)

ANKK1 (human), sequence (Q8NFD2 whole entry, looked up): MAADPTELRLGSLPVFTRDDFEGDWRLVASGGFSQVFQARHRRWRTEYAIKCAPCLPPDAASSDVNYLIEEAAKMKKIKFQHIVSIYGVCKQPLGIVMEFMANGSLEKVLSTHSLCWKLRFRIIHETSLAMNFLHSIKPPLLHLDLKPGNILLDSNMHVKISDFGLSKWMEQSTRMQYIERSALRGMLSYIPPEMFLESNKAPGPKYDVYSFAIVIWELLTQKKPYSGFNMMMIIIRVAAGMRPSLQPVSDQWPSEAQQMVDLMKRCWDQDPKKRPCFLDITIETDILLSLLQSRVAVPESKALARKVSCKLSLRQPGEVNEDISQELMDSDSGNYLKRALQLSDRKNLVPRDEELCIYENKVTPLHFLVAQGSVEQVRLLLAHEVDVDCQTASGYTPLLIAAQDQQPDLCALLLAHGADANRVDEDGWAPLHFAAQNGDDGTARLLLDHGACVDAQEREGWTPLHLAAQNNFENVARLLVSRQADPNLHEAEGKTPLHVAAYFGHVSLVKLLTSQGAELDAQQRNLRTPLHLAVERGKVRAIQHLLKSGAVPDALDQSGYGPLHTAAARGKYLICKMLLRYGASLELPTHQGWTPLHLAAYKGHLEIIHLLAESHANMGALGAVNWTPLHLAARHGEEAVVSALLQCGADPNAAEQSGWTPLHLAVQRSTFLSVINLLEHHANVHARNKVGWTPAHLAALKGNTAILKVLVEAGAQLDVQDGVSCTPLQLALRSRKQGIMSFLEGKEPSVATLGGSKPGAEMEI
AKT2 (human), sequence (P31751 whole entry, looked up): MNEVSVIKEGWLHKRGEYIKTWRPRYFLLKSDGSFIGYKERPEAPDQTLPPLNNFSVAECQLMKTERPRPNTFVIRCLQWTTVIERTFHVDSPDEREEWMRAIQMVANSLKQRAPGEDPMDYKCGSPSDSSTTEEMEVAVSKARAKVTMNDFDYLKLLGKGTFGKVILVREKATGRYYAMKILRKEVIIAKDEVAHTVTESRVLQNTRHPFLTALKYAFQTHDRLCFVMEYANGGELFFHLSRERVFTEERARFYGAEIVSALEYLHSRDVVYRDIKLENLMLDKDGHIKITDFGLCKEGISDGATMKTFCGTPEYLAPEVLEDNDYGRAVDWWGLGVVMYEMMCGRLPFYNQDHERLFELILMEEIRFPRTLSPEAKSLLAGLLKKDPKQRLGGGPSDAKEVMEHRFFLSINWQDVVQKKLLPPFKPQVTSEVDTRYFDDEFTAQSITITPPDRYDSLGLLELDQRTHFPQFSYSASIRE

Kd [1]: 0.0025 µM
Kd [2]: 0.0032 µM
Kd [3]: 0.0026 µM
Kd (AKT2 (human)): 8.4 µM
Kd (ANKK1 (human)): 4.6 µM
Kd [4]: 0.014 µM
Kd (BTK (human)): 9 µM
Kd (CAMK1D (human)): 3.8 µM
Kd (CDC2L2 (human)): 0.17 µM
Kd (CDK15 (human)): 0.43 µM
Kd (CDK17 (human)): 0.63 µM
Kd (CDK5 (human)): 11 µM
Kd (CIT (human)): 0.21 µM
Kd (CLK1 (human)): 10 µM
Kd (CLK2 (human)): 21 µM
Kd (CLK4 (human)): 16 µM
Kd (DDR1 (human)): 0.0006 µM
Kd [5]: 4.4 µM
Kd (EPHA5 (human)): 0.056 µM
Kd (EPHB3 (human)): 3.8 µM
Kd (ERBB4 (human)): 0.21 µM
Kd (ERN1 (human)): 19 µM
Kd [6]: 0.067 µM
Kd (HCK (human)): 0.013 µM
Kd (HIPK1 (human)): 4.7 µM
Kd [7]: 29 µM
Kd (LIMK2 (human)): 3.8 µM
Kd (LTK (human)): 1.2 µM
Kd (MAP3K10 (human)): 5.6 µM
Kd (MAP4K1 (human)): 0.22 µM
Kd (MET (human)): 0.51 µM
Kd (MST1R (human)): 6.4 µM
Kd (MYLK2 (human)): 7.5 µM
Kd (MYO3B (human)): 6.8 µM
Kd [8]: 30 µM
Kd (PIM2 (human)): 26 µM
Kd (PRKD3 (human)): 6.3 µM
Kd (RPS6KA4 KD1 (human)): 1.9 µM
Kd (RPS6KA4 KD2 (human)): 36 µM
Kd (TAOK1 (human)): 2.1 µM
Compound: COc1cc2ncnc(Oc3cccc(NC(=O)Nc4cc(C(C)(C)C(F)(F)F)on4)c3)c2cc1OC
